Results on one molecule are retold here after patent US20150190416A1, “FILAGGRIN PRODUCTION PROMOTER, THERAPEUTIC AGENT FOR DISEASES ASSOCIATED WITH REDUCTION IN PRODUCTION OF FILAGGRIN, AND METHOD FOR SCREENING FOR SAID THERAPEUTIC AGENT” (KYOTO UNIVERSITY, priority 2012, published 2015).

What all share (assay type): cell-based, human
Experiment [1] has as its system GPR22. Put plainly: Blocking effect by GPR22 RNAi in NHEK cells (Reference Example 1). The following applies: calcium priming, siRNA 10 nM, Compound 1 10 nM, 1 day. As for the experimental part:
(§1) 1) 5×10^4 cells/well of NHEK cells (Invitrogen) were plated on a 24-well plate. Then, 500 μl of a culture medium containing a medium for proliferating normal human epidermal keratinocytes (HuMedia-KG2, KURABO INDUSTRIES LTD.) supplemented with hEGF (0.1 ng/ml), insulin (10 μg/ml), hydrocortisone (0.5 μg/ml), gentamycin (50 μg/ml), amphotericin B (50 ng/ml), and bovine brain pituitary extract (BPE) (0.4%, v/v) were added to the plate, and the cells were cultured under the conditions of 37° C. and 5% CO2.
2) 1 day after the step 1), the medium was exchanged for the medium supplemented with calcium every day, and culture was conducted for 2 days (priming).
3) The NHEK cells of the step 2) were transfected with 10 nM of siRNA per well of the 24-well plate by using a transfection reagent, Lipofectamine RNA Max (Invitrogen) according to the manufacturer's protocol.
4) After culture for 1 day after the step 3), the medium was exchanged for a medium to which Compound 1 dissolved in DMSO was added at 10 nM per well on the 24-well plate, and culture was conducted for 1 day. As a control example, a solvent only (vehicle) was added.
5) An extraction reagent (TRIzol™, Invitrogen) was used, and according to the manufacturer's protocol, total RNA was extracted from each of cells treated with the medicament. A reverse transcriptase reagent (Prime Script™, Takara) was used, and according to the manufacturer's protocol, cDNA was prepared from the total RNA. Real-time PCR was conducted by using SYBR™ Premix Ex Taq (Takara) with a CFX96 real-time PCR instrument according to the manufacturer's protocol, and the amounts of GPR22 mRNA and FLG mRNA were measured. The results of measurement are shown as a GAPDH ratio.

The test system of experiment [2] is GPR142. Put plainly: Blocking effect by GPR142 RNAi in NHEK cells (Examples 5 and 6). The following applies: calcium priming, siRNA 50 nM, Compound 1 10 nM, 1 day. As for the experimental part:
In this example, it was confirmed that the expression-inducing effects of Compound 1 on GPR142 mRNA and FLG mRNA in NHEK cells were blocked by GPR142 RNAi.
as §1
2) After culture under the conditions of the step 1) for 1 day, the medium was exchanged for the culture medium of the step 1) to which CaCl2 (1.2 mM in terms of Ca) was further added as Ca, and culture was conducted under the conditions of 37° C. and 5% CO2. After culture for 1 day, the medium was exchanged for the same culture medium containing Ca, and culture was further conducted for 1 day.
3) The NHEK cells of the step 2) were transfected with 50 nM of siRNA per well of the 24-well plate by using a transfection reagent, Lipofectamine RNA Max (Invitrogen) according to the manufacturer's protocol.
The sequences of the used three kinds of GPR142 siRNAs and the sequences of the used control siRNAs (all the siRNAs are manufactured by Invitrogen) are described below.
4) After culture for 1 day after the transfection with siRNA in the step 3), the medium was exchanged for the culture medium of the step 1) to which a DMSO solution of Compound 1 was added at 10 nM per well, and culture was further conducted for 1 day. As a control, a solvent only (vehicle) was added.
5) An extraction reagent (TRIzol™, Invitrogen) was used, and according to the manufacturer's protocol, total RNA was extracted from each of cells treated with the medicament. A reverse transcriptase reagent (Prime Script™, Takara) was used, and according to the manufacturer's protocol, cDNA was prepared from the total RNA. Next, real-time PCR was conducted by using the following primers and SYBR™ Premix Ex Taq (Takara) with a CFX96 real-time PCR instrument according to the manufacturer's protocol, and the amounts of GPR142 mRNA and FLG mRNA expression were measured. The result of measurement is shown as a GAPDH ratio.
In this example, it was confirmed that the expression-inducing effects of Compound 2 or 3 on GPR142 mRNA and FLG mRNA in NHEK cells were blocked by GPR142 RNAi.
NHEK cells were transfected in the same manner as in Example 5 except that, in the steps 1) to 3) of Example 5, two kinds of GPR142 siRNAs and two kinds of control siRNAs, i.e., GPR142-1 (#HSS139493) and GPR142-3 (#HSS179846) and Control-1 (LOW GC, #129350-200), and Control-3 (HIGH GC, #129350-400) were used as GPR142 siRNAs and control siRNAs, respectively. After culture for 1 day after the transfection was conducted in the same manner as in the step 4) of Example 5, the medium was exchanged for the culture medium to which each of a DMSO solution of Compound 1, a DMSO solution of Compound 2, or a methanol solution of Compound 3 was added at 10 nM per well, and culture was further conducted for 1 day. As a control, a solvent only (vehicle) was added. Regarding each of cells treated with the medicament, real-time PCR was conducted to measure the amounts of GPR142 mRNA and FLG mRNA in the same manner as in the step 5) of Example 5. The results of the measurement are shown as a GAPDH ratio.

Experiment [3] concerns GPR142 mRNA. In words: GPR142 mRNA expression in NHEK cells, real-time PCR (Example 4). As to conditions: Compound 1 1 μM, Ca 1.2 mM, 3 days, compared to the control. The procedure: In this example, the expression-inducing effects of Compound 1 on GPR142 mRNA and GPR22 mRNA in NHEK cells were confirmed.
as §1
2) After culture under the conditions of the step 1) for 1 day, the medium was exchanged for the culture medium of the step 1) to which a DMSO solution of Compound 1 was added at 1 μM per well every day and the culture was conducted for 3 days. […]
3) An extraction reagent (TRIzol™, Invitrogen) was used, and according to the manufacturer's protocol, total RNA was extracted from each of cells treated with the medicament. […] Next, real-time PCR was conducted by using the following primers and SYBR™ Premix Ex Taq (Takara) with a CFX96 real-time PCR instrument according to the manufacturer's protocol, and the amounts of GPR142mRNA and GPR22mRNA expression were measured. […]
(Quantitative PCR measures a nucleic acid by following its amplification.)

Experiment [4] has as its system GPR142. Put plainly: G protein-coupled receptor (GPCR) array in NHEK cells, GPR142 (Example 3). As to conditions: Compound 1 1 μM, 3 days. The procedure: In this example, the expression-increasing effect of Compound 1 on a GPCR in NHEK cells was confirmed by using a GPCR array.
1) 5×10^4 cells/well of NHEK cells (Invitrogen) were plated on a 24-well plate, and then 500 μl of a culture medium containing a medium for proliferating normal human epidermal keratinocytes (HuMedia-KG2, KURABO INDUSTRIES LTD.) supplemented with hEGF (0.1 ng/ml), insulin (10 μg/ml), hydrocortisone (0.5 μg/ml), gentamycin (50 μg/ml), amphotericin B (50 ng/ml), and bovine brain pituitary extract (BPE) (0.4%, v/v) were added to the plate, and the cells were cultured under the conditions of 37° C. and 5% CO2 for from 3 to 4 days until the 80 to 85% confluent state was achieved.
2) Next, a DMSO solution of Compound 1 was added to the medium at 1 μM per well, and culture was further conducted for 3 days without changing the medium. In addition, regarding the system to which only CaCl2 (1.5 mM in terms of Ca) as Ca was added and the system to which both Compound 1 and CaCl2 (1.5 mM in terms of Ca) as Ca were added, the culture was conducted in a similar manner for 3 days. As a control example, a solvent only (vehicle) was added.
3) An extraction reagent (TRIzol™, Invitrogen) was used, and according to the manufacturer's protocol, total RNA was extracted from each of cells treated in the step 2). A reverse transcriptase reagent (Prime Script™, Takara) was used, and according to the manufacturer's protocol, cDNA was prepared from the total RNA. Next, a TaqMan™ human GPCR array (AB 4365295, Applied Biosystems) was used, and the analysis was conducted by an ABI PRISM™ 7900HT gene analyzer (Applied Biosystems). The result of measurement was shown as the comparison of the cycle number (ΔCt value) to 18S ribosomal RNA as a control (comparative Ct method).

SMILES strings stand for the structures.

`[Ca+2].[Cl-].[Cl-]` [Calcium, CaCl2, reference compound]: in experiment [1], the “FLG mRNA expression in the presence of GPR22 siRNA” value is given as “not suppressed” and the “GPR22 mRNA expression in the presence of GPR22 siRNA” value was “suppressed by GPR22 siRNA”. In addition, in experiment [2], the “FLG mRNA expression in the presence of GPR142 siRNA” value is “suppressed by GPR142 siRNA” and the “GPR142 mRNA expression in the presence of GPR142 siRNA” value is given as “suppressed by GPR142 siRNA”. For the same molecule, the “GPR142 mRNA expression (GAPDH ratio)” value in experiment [3] is reported as “GPR142 mRNA expression was induced”. For the same molecule, the “GPR142 mRNA expression (GPCR array), in words” value in experiment [4] (Ca 1.5 mM) is reported as “induced GPR142 mRNA expression”. Also, the “GPR142: cycle number (ΔCt value) to 18S ribosomal RNA” value in experiment [4] (CaCl2 1.5 mM in terms of Ca, control 29.2) is given as −4.9.
